Data reported in patent publication US10280146B2, “Pyrimidone compounds used as Lp-PLA2 inhibitors and pharmaceutical compositions thereof” (Shanghai Institute of Materia Medica, Chinese Academy of …, priority 2014, dated 2019).

Experiments:
[1] = molecular target: T1, Lp-PLA2 (human recombinant enzyme as the source of enzyme) (Homo sapiens, UniProt Q13093); test: In vitro inhibitory activity on Lp-PLA2, human recombinant enzyme (2-thio-PAF/DTNB); assay type: biochemical; conditions: read-out: inhibitory ratio, % on Lp-PLA2 (human recombinant enzyme as the source of enzyme)
T1 sequence (Q13093 22-441): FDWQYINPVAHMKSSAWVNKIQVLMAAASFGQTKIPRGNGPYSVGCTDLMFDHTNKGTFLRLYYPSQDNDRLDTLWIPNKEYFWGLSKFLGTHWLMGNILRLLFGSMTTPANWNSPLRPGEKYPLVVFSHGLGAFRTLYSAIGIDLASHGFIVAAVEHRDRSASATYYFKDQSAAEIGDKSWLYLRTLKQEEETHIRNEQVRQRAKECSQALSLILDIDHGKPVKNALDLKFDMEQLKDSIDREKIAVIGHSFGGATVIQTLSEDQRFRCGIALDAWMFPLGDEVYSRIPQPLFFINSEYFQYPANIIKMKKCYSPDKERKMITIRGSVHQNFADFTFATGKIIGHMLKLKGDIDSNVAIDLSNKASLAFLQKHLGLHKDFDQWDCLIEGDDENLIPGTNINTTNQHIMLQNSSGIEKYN
Protocol: (§1) 0.1M Tris-HCl, 1 mM EGTA, PH 7.2
(§2) Anhydrous ethanol was used as solvent to make a 25 mg/ml mother liquor. The solution was aliquoted, stored at −80° C. and diluted 900 times before use (about 50 μM of concentration)
(§3) 3) DTNB (5,5′-dithio-bis-(2-nitrobenzoic acid), Sigma, Lot D8130)
(§4) The solution was prepared just before use.
(§5) 4) Compound was dissolved in DMSO to a suitable concentration.
(§6) Lp-PLA2 activity was determined by using 2-thio-PAF as substrate. The thiol group produced upon the hydrolysis of 2-thio-PAF can react with DTNB to generate a yellow substance. The optical density at 414 nm can be detected to reflect Lp-PLA2 activity.
1.2 Determination of the Inhibitory Activity of the Compounds on Lp-PLA2 (Human Recombinant Enzyme as the Source of Enzyme) (In Vitro)
1) The corresponding reagents were added according to Table 3 and mixed uniformly by shaking.
(§7) 2) 10 μL of DTNB was added to each well.
(§8) 3) 150 μL of 2-thio-PAF was added to each well and shaken for 15 s on a microplate reader to mix the liquid in the well uniformly.

[2] = In vitro assay of S9 metabolic stability, human S9; assay type: in vitro ADME; conditions: for half-life at 0.1 μM: human, S9 fraction, pH 7.4
Protocol: (§9) 3.1.1 The Preparation of Tris/HCl(0.1 M, pH 7.4) Buffer
(§10) 12.12 g of TRIS (tris-hydroxymethyl aminomethane) was weighed, dissolved in 800 mL of water, and adjusted to pH 7.4 with HCl (2 M), and then the volume was adjusted to 1000 mL with water.
(§11) 3.1.2 The preparation of MgCl2
(§12) MgCl2 (100 mM) solution was prepared with 0.1 M Tris/HCl buffer, aliquoted and stored at −20° C. The incubation concentration of MgCl2 was 5.0 mM.
(§13) 3.1.3 The Preparation of NADPH
(§14) NADPH (10 mM) solution was prepared with 0.1 M Tris/HCl buffer, aliquoted and stored at −20° C. The incubation concentration of NADPH was 1.0 mM.
(§15) 3.1.4 The Preparation of S9
(§16) Human S9 (purchased from Reid Liver Disease Research (Shanghai) Co., Ltd.) was diluted 10 times with 0.1 M Tris/HCl and rat S9 (purchased from Reid Liver Disease Research (Shanghai) Co., Ltd.) was diluted 5 times with 0.1 M Tris/HCl, so that the incubation concentrations of human and rat S9 were equivalent to the incubation concentrations of the liver microsomes in the corresponding species (both incubation concentrations of liver microsomes in human and rats are 0.33 mg/mL).
(§17) 3.1.5 The Preparation of the Compounds to be Tested
The compound was dissolved in DMSO to obtain a stock solution at a concentration of 10 mM. The stock solution was diluted to 1 mM with DMSO and then diluted with 0.1% BSA-water to obtain a working solution at a concentration of 2 μM. In the incubation system, the working solution of 2 μM was diluted 20 times to a final concentration of 0.1 μM. The concentration of DMSO in the incubation system was ≤0.01%.
3.1.6 The Preparation of the Positive Control Compound
2 mM VIVID stock solution (purchased from Shanghai Beili Biotechnology Co., Ltd.) was diluted 50 times with the 2 μM working solution for the compounds to be tested. In the incubation system, the mixed working solution of VIVID and the compounds to be tested were diluted 20 times
S9 was incubated in a 96-well plate and each incubation system was 450 μL. […]

[3] = molecular target: T2, Lp-PLA2 (rabbit serum as the source of enzyme) (Oryctolagus cuniculus, UniProt G1SE06); test: In vitro inhibitory activity on Lp-PLA2, rabbit serum as the source of enzyme (2-thio-PAF/DTNB); assay type: biochemical; conditions: read-out: Inhibitory ratio, % on Lp-PLA2 (rabbit serum as the source of enzyme)
T2 construct: Rabbit Serum as the Source of Enzyme; from tissue; host or cells: rabbit serum
T2 sequence (G1SE06 22-423): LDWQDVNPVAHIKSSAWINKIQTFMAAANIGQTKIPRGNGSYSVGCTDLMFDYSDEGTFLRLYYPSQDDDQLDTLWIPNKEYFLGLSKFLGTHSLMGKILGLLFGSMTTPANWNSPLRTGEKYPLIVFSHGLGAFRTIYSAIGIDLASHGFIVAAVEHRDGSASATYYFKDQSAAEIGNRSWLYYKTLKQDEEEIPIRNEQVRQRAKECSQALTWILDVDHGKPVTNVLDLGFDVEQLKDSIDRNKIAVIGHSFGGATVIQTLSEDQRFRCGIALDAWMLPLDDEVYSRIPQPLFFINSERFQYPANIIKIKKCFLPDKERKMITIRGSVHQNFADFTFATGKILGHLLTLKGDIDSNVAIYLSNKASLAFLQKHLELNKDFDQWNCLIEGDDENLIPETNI
Protocol: as §1, §2, §3, §4, §5, §6
1.1 Determination of the Inhibitory Activity of the Compounds on Lp-PLA2 (Rabbit Serum as the Source of Enzyme) (In Vitro)
1) The corresponding reagents were added according to Table 1 and mixed uniformly by shaking.
as §7, §8

[4] = system: Lp-PLA2 (rat serum as the source of enzyme); test: In vitro inhibitory activity on Lp-PLA2, rat serum as the source of enzyme (2-thio-PAF/DTNB); assay type: biochemical
Protocol: as §1, §2, §3, §4, §5, §6
1.3 Determination of the Inhibitory Activity of the Compounds on Lp-PLA2 (Rat Serum as the Source of Enzyme (In Vitro)
1) The corresponding reagents were added according to Table 5 and mixed uniformly by shaking.
as §7, §8

[5] = In vitro assay of S9 metabolic stability, rat S9; assay type: in vitro ADME; conditions: S9 fraction, pH 7.4; rat S9, NADPH addition, 0.1 μM compound, 37° C.
Protocol: as §9, §10, §11, §12, §13, §14, §15, §16, §17
The compound was dissolved in DMSO to obtain a stock solution at a concentration of 10 mM. The stock solution was diluted to 1 mM with DMSO and then diluted with 0.1% BSA-water to obtain a working solution at a concentration of 2 μM. […]

[6] = system: Lp-PLA2 in serum of SD rats; test: In vivo inhibition assay of Lp-PLA2 activity in SD rats, single administration; set-up: species or system rat; conditions: 50 mg/kg oral, serum 1-24 h
Protocol: Each group had 5 SD rats and 50 mg/kg test agents was administrated orally to the rats. […] Blood was collected from the orbits of the rats at 0 h before administration and at 1 h, 3 h, 5 h, 7 h and 24 h after administration and placed at room temperature for 30 minutes before centrifugation. Serum was collected and the Lp-PLA2 activity in serum was measured.

[7] = 10 nM compound, — = no inhibitory activity

inhibition at 0.01 µM ([1]; 10 nM compound)	inhibition at 0.1 µM ([1]; 100 nM compound)	half-life at 0.1 μM [2]	metabolism stability (in words) ([2]; statement covers human and rat S9)	inhibition at 0.01 µM [3, 7]	inhibition at 0.1 µM ([3]; 100 nM compound)	inhibitory ratio, % on Lp-PLA2 (rat serum as the source of enzyme) [4, 7]	inhibitory ratio, % on Lp-PLA2 (rat serum as the source of enzyme) ([4]; 100 nM compound)	half-life at 0.1 μM [5]	SMILES	activity of Lp-PLA2 in serum of the SD rats after a single administration [6]
82.8%	90.1%	> 1 h	superior metabolism stability	33.2%	65.4%	27.65%	82.48%	195 h	Cn1cc(-c2cc(OCc3cc(F)c(Oc4ccc(Cl)c(C(F)(F)F)c4)c(F)c3)nc(=O)n2C)cn1 [Example 21, 4-((4-(4-chloro-3-(trifluoromethyl)phenoxy)-3,5-difluorobenzyl)oxy)-1-methyl-6-(1-methyl-1H-pyrazolyl-4)pyrimidin-2(1H)-one]	
		7.08 h						2.68 h	COc1cc(OCc2cc(F)c(Oc3ccc(Cl)c(C(F)(F)F)c3)c(F)c2)nc(=O)n1C [Example 65, 4-((4-(4-chloro-3-(trifluoromethyl)phenoxy)-3,5-difluorobenzyl)oxy)-6-methoxy-1-methylpyrimidin-2(1H)-one]	
									COc1cc(OCc2ccc(Oc3ccc(Cl)c(C(F)(F)F)c3)c(F)c2)nc(=O)n1C [Example 66, 4-((4-(4-chloro-3-(trifluoromethyl)phenoxy)-3-fluorobenzyl)oxy)-6-methoxy-1-methylpyrimidin-2(1H)-one]	comparable to darapladib
